# Measured values: a melting point compilation (Tetko et al.)
row,Compound,melting point
1,NC(C(=O)O)c1cccc(F)c1 (stereo not given),273 to 275 °C
2,CCOc1cc(C=O)ccc1OCc1ccc(C(C)(C)C)cc1,113 to 115 °C
3,CCCn1c(C)cc(/C=C(\C#N)C(=O)O)c1C,199 to 201 °C
4,Nc1ccc(F)c(N2CCS(=O)(=O)CC2)c1,181 to 183 °C
5,N#Cc1ccc(N2C(=O)NC(CCC(=O)O)C2=O)cc1 (stereo not given),220 to 222 °C
6,CC(C)c1cc(C(=O)O)on1,74 to 76 °C
7,CC1CCCN(S(=O)(=O)c2ccc(N)cc2)C1 (stereo not given),129 to 131 °C
8,Nc1cccc(-c2nc3ccccc3s2)c1,138 to 140 °C
9,Cc1c(Cl)cccc1Nc1nnc(S)s1,189 to 191 °C
10,CC(C)(CO)N1C(=O)c2ccccc2C1=O,65 to 67 °C
11,CS(=O)(=O)N1CCCC1C(=O)O (stereo not given),52 to 54 °C
12,CC1Cc2ccccc2N1Cc1occc1C(=O)O (stereo not given),186 to 188 °C
13,COC(=O)c1cc(Cl)c2cc(Cl)ccc2n1,157 to 159 °C
14,CC(C)n1c(=O)[nH]c2cc(C(=O)O)ccc2c1=O,332 to 334 °C
15,Cc1nc(CCCC(=O)O)cs1,66 to 68 °C
16,O=C(O)c1nn(-c2ccccc2F)cc1Br,235 to 237 °C
17,CC1(C2CC2)NC(=O)N(CC(=O)O)C1=O (stereo not given),170 to 172 °C
18,COc1cccc(-c2nnc(N)o2)c1OC,185 to 187 °C
19,CNS(=O)(=O)c1ccc(/C=C/C(=O)O)cc1,259 to 261 °C
20,Cc1nc(N)n(-c2ccccc2)n1,131 to 133 °C
21,O=C(CO)N1CCc2ccccc2C1,99 to 101 °C
22,O=C(O)c1ccc(Oc2ccc(F)cc2)cc1,170 to 174 °C
23,N#Cc1ccc(Cn2cncn2)c(F)c1,107 to 109 °C
24,CCc1cc2c(n1Cc1ccccc1)CCCC2=O,59 to 61 °C
25,CC(=O)NCC(=O)NCC(=O)O,174 to 176 °C

row,Compound,melting point
1,COC(=O)c1ccc(NC(C)=O)c(C)c1,132 to 134 °C
2,COCc1cccc(CNC(=O)CCl)c1,41 to 43 °C
3,COC(=O)[C@@H]1C[C@@H](O)CN1C(=O)C12CC3CC(CC(C3)C1)C2,158 to 160 °C
4,Nc1ccc(CC(=O)N2CCSCC2)cc1,118 to 120 °C
5,CCCCOc1ccc(-c2cc(N)on2)cc1,112 to 114 °C
6,Nc1ccc(Oc2cccc(F)c2)c2ccncc12,137 to 139 °C
7,Cc1cccc2[nH]c(C(=O)O)cc12,216 to 218 °C
8,Nc1ccc(S)c(Br)c1,94 to 96 °C
9,NCCc1ccc(CO)cc1,35 to 37 °C
10,O=C1CN(Cc2ccccc2)CCN1,150 to 152 °C
11,OC1(Cc2ccccc2)CCCC1,56 to 58 °C
12,Cc1c(N)cccc1C(=O)N1CCCC1,162 to 164 °C
13,COC(=O)c1cn(CCCC#N)nn1,75 to 77 °C
14,O=C(O)c1ccc(Cn2ccccc2=O)o1,199 to 201 °C
15,NS(=O)(=O)c1c(Cl)cccc1Cl,176 to 178 °C
16,O=C(O)c1cc2cc(Cl)cc(Br)c2o1,265 to 267 °C
17,CC(NS(=O)(=O)Cc1ccccc1)C(=O)O (stereo not given),119 to 121 °C
18,Cc1cc(OS(C)(=O)=O)nc2c1cnn2C(C)C,78 to 80 °C
19,Cc1cc([N+](=O)[O-])ccc1S(=O)(=O)Cl,69 to 71 °C
20,CN(C)C(=O)c1cc(F)c(NN)c(F)c1,74 to 76 °C
21,Nc1ccc(Cl)c(C(=O)Nc2ccccc2)c1,115 to 117 °C
22,Cc1nc(CC(N)=NO)cs1,139 to 141 °C
23,NNC(=O)c1n[nH]c2c1CCCC2,176 to 178 °C
24,Nc1nc2ccccc2n1N,259 to 261 °C
25,O=C(CCl)N1c2ccccc2SCC1c1ccccc1 (stereo not given),162 to 164 °C

row,Compound,melting point
1,CS(=O)(=O)CCC(NC(=O)c1ccc(Cl)cc1)C(=O)O (stereo not given),184 to 186 °C
2,NNC(=O)c1cc(F)ccc1Br,149 to 151 °C
3,OCCn1c(CSc2nnc(-c3ccc4c(c3)OCO4)o2)nc2ccc(Cl)cc21,202 to 204 °C
4,Cn1cc(S(=O)(=O)Cl)cc1C(=O)C(Cl)(Cl)Cl,158 to 160 °C
5,CC(C)(C)OC(=O)NC(C(N)=NO)c1ccccc1 (stereo not given),177 to 179 °C
6,Nc1sc2c(c1C(=O)O)CCC2,147 to 149 °C
7,CS(=O)(=O)c1cc(S(=O)(=O)Cl)c(Cl)s1,124 to 126 °C
8,COCCOc1c(N)cccc1Cl,56 to 58 °C
9,CC(C)(C)C1CCC(c2cc(N)[nH]n2)CC1 (stereo not given),132 to 134 °C
10,Cc1ccc(CNC(=O)C2CCNCC2)cc1F,134 to 136 °C
11,O=C(c1cccnc1)c1c(F)cc(F)cc1F,38 to 40 °C
12,Cc1nn(-c2ccc(Cl)cc2)c(C)c1C=O,131 to 133 °C
13,Cc1cccc(C)c1Nc1nnc(S)s1,266 to 268 °C
14,O=C(O)CNC(=O)C1CCOCC1,166 to 168 °C
15,CC(C)n1ncc(C(=O)O)c1C1CC1,99 to 101 °C
16,COc1ccccc1NCCC(N)=O,94 to 96 °C
17,COCCc1nnc(-c2cccc(C(=O)O)c2)o1,156 to 158 °C
18,CNS(=O)(=O)c1ccc(C(C)=O)cc1,109 to 111 °C
19,CCOC(=O)c1cnn(C)c1NC(=O)CCl,90 to 92 °C
20,CC1CC(C(=O)O)CCC1=O (stereo not given),69 to 71 °C
21,O=S(=O)(c1ccc(CCl)cc1)C(F)F,63 to 65 °C
22,O=C(O)c1cn(Cc2cccnc2)nn1,206 to 208 °C
23,O=C(NC(Cc1c[nH]cn1)C(=O)O)C1CCCCC1 (stereo not given),127 to 129 °C
24,Cc1[nH]c(C(=O)O)c(C)c1S(N)(=O)=O,214 to 216 °C
25,Cc1ncsc1-c1cnco1,96 to 98 °C

row,Compound,melting point
1,CC(=O)c1ccc2c(c1)CC(=O)N2,217 to 219 °C
2,O=C(O)CCCNc1ncccn1,127 to 129 °C
3,COc1cc(C(C)=O)ccc1S(C)(=O)=O,124 to 126 °C
4,Cc1cc(Sc2ncccn2)ccc1N,126 to 128 °C
5,Cc1cc(F)ccc1CO,44 to 46 °C
6,COc1ccccc1C(CN)NC(=O)OC(C)(C)C (stereo not given),145 to 147 °C
7,N#Cc1cc(C#N)c(S)nc1N,280 to 282 °C
8,O=C(O)C1CCN(S(=O)(=O)Cc2ccccc2)CC1,191 to 193 °C
9,O=C1CCc2cc(C(=O)O)ccc2N1,261 to 263 °C
10,O=C(O)C1CC(=O)N(c2ccc(F)cc2)C1 (stereo not given),121 to 123 °C
11,O=C(NCc1cccs1)c1ccc(-n2ccnc2S)cc1,195 to 197 °C
12,O=C(/C=C/c1ccco1)C(C(=O)/C=C/c1ccco1)=C1SCCCCS1,137 to 139 °C
13,Cn1cc(-c2ccc(F)c(C(=O)O)c2)cn1,208 to 210 °C
14,O=C(O)CNC(=O)c1ccc(Cl)cc1,214 to 216 °C
15,O=c1cc(CS)nc2ccccn12,119 to 121 °C
16,CN(C)C(=O)Sc1cnn(-c2ccccc2F)c1,65 to 67 °C
17,Cc1ccc(C(C)O)cc1[N+](=O)[O-] (stereo not given),48 to 50 °C
18,Nc1ccc(S(=O)(=O)Nc2ccc(Cl)cc2)cc1,180 to 182 °C
19,CCN1C(=O)C(=O)c2cc(C)ccc21,104 to 106 °C
20,NC1CCCS(=O)(=O)c2ccccc21 (stereo not given),115 to 117 °C
21,CC(=O)NC(Cc1c[nH]c2ccc(Br)cc12)C(=O)O (stereo not given),206 to 208 °C
22,O=C(O)Cc1csc(NC(=O)Cc2cccs2)n1,200 to 202 °C
23,COc1ccc(S(=O)(=O)N2CCc3ccccc32)cc1C(=O)O,136 to 138 °C
24,Cc1nc([N+](=O)[O-])cn1CC(=O)O,244 to 246 °C
25,Cc1ccc(-n2nc(C)c(C(=O)O)n2)c(C)c1,178 to 180 °C
